Experimental data from USRE43802E1, “α- and β-amino acid hydroxyethylamino sulfonamides useful as retroviral protease inhibitors” (G.D. Searle LLC, priority 1992, dated 2012).

Molecular target: T1, HIV protease (Human immunodeficiency virus type 1 group M subtype B, UniProt P04585)
T1 construct: HIV protease is diluted in the assay buffer to a final enzyme concentration of 12.3 nanomolar, based on a molecular weight of 10,780
Test: HIV protease enzyme assay (fluorescence, substrate 2-Ile-Nle-Phe(p-NO2)-Gln-ArgNH2)
Type: biochemical
Details: IC50 (nM), Table 21; HIV protease enzyme assay
Experimental: The enzyme method is described below. […] The positive control is MVT-101 (Miller, M. et al, Science, 246, 1149 (1989)] The assay conditions are as follows:
Assay buffer: 20 mM sodium phosphate, pH 6.4 20% glycerol 1 mM EDTA 1 mM DTT 0.1% CHAPS
The above described substrate is dissolved in DMSO, then diluted 10 fold in assay buffer. Final substrate concentration in the assay is 80 μM.
The final concentration of DMSO is 14% and the final concentration of glycerol is 18%. The test compound is dissolved in DMSO and diluted in DMSO to 10× the test concentration; 10 μl of the enzyme preparation is added, the materials mixed and then the mixture is incubated at ambient temperature for 15 minutes. The enzyme reaction is initiated by the addition of 40 μl of substrate. The increase in fluorescence is monitored at 4 time points (0, 8, 16 and 24 minutes) at ambient temperature. Each assay is carried out in duplicate wells.

Structure (SMILES) | IC50
CC(C)CCN(C[C@@H](O)[C@H](Cc1ccccc1)NC(=O)[C@H](Cc1cnc[nH]1)NC(=O)c1ccc2ccccc2n1)S(=O)(=O)c1ccccc1 [Entry 12] | 2 nM
CCC(C)[C@H](NC(=O)CN(C)C)C(=O)N[C@@H](Cc1ccccc1)[C@H](O)CN(CCC(C)C)S(=O)(=O)c1ccccc1 (some centres unmarked) [Entry 14] | 4 nM

Same assay, conditions: Table 18A; HIV protease enzyme assay; read-out: IC50

Structure (SMILES) | IC50
CC(C)CCN(C[C@@H](O)[C@H](Cc1ccccc1)NC(=O)[C@@H](NC(=O)OCc1ccccc1)C(C)(C)C)S(C)(=O)=O [Entry 11] | 81 nM

Same assay, conditions: Table 19B; @ 1 uM

Structure (SMILES) | IC50 (uM) or % inhib: % inhib @ 1 uM
CC(C)CCN(C[C@@H](O)[C@H](Cc1ccccc1)NC(=O)OCc1ccccc1)S(=O)(=O)C(F)(F)F [Table 1a Entry 50] | 42%

Same assay, conditions: Table 19B; @ 10 uM

Structure (SMILES) | IC50 (uM) or % inhib: % inhib @ 10 uM
CC(C)CCN(C[C@@H](O)[C@H](Cc1ccccc1)NC(=O)OCc1ccccc1)S(=O)(=O)C(F)(F)F [Table 1a Entry 50] | 89%

Same assay, conditions: Table 19B; HIV protease enzyme assay; read-out: IC50 (uM) or % inhib: IC50

Structure (SMILES) | IC50
CC(C)CCN(C[C@@H](O)[C@H](Cc1ccccc1)NC(=O)[C@@H](NC(=O)OCc1ccccc1)C(C)C)S(=O)(=O)c1ccccc1 [Table 5 Entry 1] | 1.4 nM
CCC(C)C(NC(=O)OCc1ccccc1)C(=O)N[C@@H](Cc1ccccc1)[C@H](O)CN(CCC(C)C)S(=O)(=O)c1ccccc1 (some centres unmarked) [Table 3 Entry 4] | 2.4 nM
CSC(C)(C)[C@H](NC(=O)CN(C)C)C(=O)N[C@@H](Cc1ccccc1)[C@H](O)CN(CCC(C)C)S(=O)(=O)c1ccccc1 [Table 14 Entry 3] | 4.9 nM
CC(C)CCN(CC(O)C(Cc1ccccc1)NC(=O)C(NC(=O)CBr)C(C)(C)C)S(=O)(=O)c1ccccc1 (centres unmarked) [Table 12 Entry 10] | 3.3 nM
C=CS(=O)(=O)N(CC(C)C)C[C@@H](O)[C@H](Cc1ccccc1)NC(=O)OCc1ccccc1 [Table 1a Entry 55] | 100 nM

Same assay, conditions: Table 20; HIV protease enzyme assay; read-out: IC50 (uM) or % inhibition: IC50

Structure (SMILES) | IC50
CCc1ccccc1C(=O)NC(Cc1ccccc1)C(O)CN(CC(C)C)S(=O)(=O)c1ccc(OC)cc1 (centres unmarked) [Table 5A Entry 13] | 9.8 nM
COc1ccc(S(=O)(=O)N(CC(C)C)CC(O)C(Cc2ccccc2)NC(=O)c2cccc(C)c2C)cc1 (centres unmarked) [Table 5A Entry 16] | 8 nM

Same assay, conditions: Table 21; HIV protease enzyme assay; read-out: IC50

Structure (SMILES) | IC50
COc1ccc(S(=O)(=O)N(CC(C)C)C[C@@H](O)[C@H](Cc2ccccc2)NC(=O)O[C@H]2CCOC2)cc1 [Example 44] | 4 nM
COc1ccc(S(=O)(=O)N(CC(C)C)C[C@@H](O)[C@H](Cc2ccccc2)NC(=O)OCc2cncs2)cc1 [Example 56] | 4 nM
COc1ccc(S(=O)(=O)N(CC(C)C)C[C@@H](O)[C@H](Cc2ccccc2)NC(=O)c2ccc([N+](=O)[O-])cc2C)cc1 [Example 50] | 14 nM
COc1ccc(S(=O)(=O)N(CC(C)C)C[C@@H](O)[C@H](Cc2ccccc2)NC(=O)c2cc(N(C)C)ccc2C)cc1 [Example 55] | 37 nM
CC(C)CN(C[C@@H](O)[C@H](Cc1ccccc1)NC(=O)OCc1ccccc1)S(=O)(=O)c1ccc2nc(N)sc2c1 [Example 77] | 2 nM
CC(C)CN(C[C@@H](O)[C@H](Cc1ccccc1)NC(=O)OCc1cccnc1)S(=O)(=O)c1ccc([N+](=O)[O-])cc1 [Example 19] | 8 nM
CC(C)CN(C[C@@H](O)[C@H](Cc1ccccc1)NC(=O)O[C@H]1CCS(=O)(=O)C1)S(=O)(=O)c1ccc(O)cc1 [Example 43] | 4 nM
COc1ccc(S(=O)(=O)N(CC(C)C)C[C@@H](O)[C@H](Cc2ccccc2)NC(=O)OCc2cc[n+]([O-])cc2)cc1 [Example 26] | 68 nM
Cc1c(N)cccc1C(=O)N[C@@H](Cc1ccccc1)[C@H](O)CN(CC(C)C)S(=O)(=O)c1ccc2c(c1)CCO2 [Example 68] | 7 nM
COc1ccc(S(=O)(=O)N(CC(C)C)C[C@@H](O)[C@H](Cc2ccccc2)NC(=O)OCc2ccoc2)cc1 [Example 58] | 2 nM
CC(C)CN(C[C@@H](O)[C@H](Cc1ccccc1)NC(=O)OCc1cncs1)S(=O)(=O)c1cccc(N)c1 [Example 64] | 7 nM
Cc1ccccc1C(=O)N[C@@H](Cc1ccccc1)[C@H](O)CN(CC(C)C)S(=O)(=O)c1ccc(O)cc1 [Example 37] | 7 nM
Cc1c(O)cccc1C(=O)N[C@@H](Cc1ccccc1)[C@H](O)CN(CC(C)C)S(=O)(=O)c1ccc(N)cc1 [Example 63] | 7 nM
CC(C)CN(C[C@@H](O)[C@H](Cc1ccccc1)NC(=O)OCc1cncs1)S(=O)(=O)c1ccc(O)cc1 [Example 57] | 4 nM
